Assays:
[1] = system: patient-derived colorectal cancer cells (CRCs); test: total stranded RNA-seq of repeat element expression after 5-AZA-CdR; assay type: cell-based, human; details: low doses of 5-AZA-CdR, 5 days, vs mock-treated
Method: A, Effect of 5-AZA-CdR on repeat element expression in patient-derived xenograft colorectal cancer cells after 5 days of treatment. Plots show log (fold change) for 5-AZA-CdR treated cells over mock-treated cells for anti-sense (y-axis) and sense (x-axis) transcripts of each SINE, LINE and ERV repeat element (CPM). […] The significance was determined as p≤0.05 and |log FC|≥1 at each strand.
To identify drug-induced immunogenic retroelements on a global scale, we examined the endogenous dsRNA formation in patient-derived colorectal cancer cells (CRCs) that were treated with low doses of 5-AZA-CdR, an FDA-approved DNMTi, or mock-treated. To this end, we performed total stranded RNA-seq and assessed repetitive elements transcribed in both strands, therefore likely to produce dsRNA species.

ADAR1 = test: qPCR analysis of ADAR1 mRNA level and isoforms; assay type: cell-based, human
Method: C, qPCR analysis of total ADAR1 mRNA level after treatment with 5-AZA-CdR (300 nM, for 5 days) or transfection with 100 ng ml-1 poly(I:C) over a course of 24 days. Cells were washed out at day 5 and seeded in drug-free medium. Data are mean±s.e.m.****P<0.0001, Sidak-corrected two-way ANOVA.
A, ADAR1 isoforms (p110 and p150) relative expression analysed by qPCR. LACZ denotes ADAR1WT; PIC denotes 100 ng/ml poly (I:C) for 5 days; AZA denotes 300 nM 5-AZA-CdR for 5 days). Data are mean±s.e.m. (n=3 from three independent experiments). ***P<0.001, ****P<0.0001, Tukey-corrected two-way ANOVA.
To test this hypothesis, we first determined if ADAR1 depletion affects dsRNA formation by IR-Alus in untreated patient-derived CRCs. We generated ADAR1 knock-down CRCs using two different hairpin RNAs (ADAR1^KDA/B) and confirmed depletion of both the constitutively expressed (p110) and interferon-inducible (p150) ADAR1 isoforms (FIG. 8A). […] To determine if MDA5 ligands also increase upon ADAR1 depletion, we performed the MDA5 protection assay followed by RNA-Seq, as above. […] Again, these immunogenic Alus were primarily IR-Alu pairs unidirectionally transcribed in either the sense (+/+) or antisense (−/−) direction and induced upon ADAR1 depletion (FIG. 9C-J).
Next, we tested whether epigenetic therapy can induce and activate ADAR1 editing activity.

[2] = system: LIM1215 colorectal cancer cell lines; test: ISG relative expression in LIM1215 cells; assay type: cell-based, human; details: LIM1215, ADAR1 KD vs WT, 300 nM for 5 days
Method: B) Interferon-stimulated genes (MDA5, IRF7 and DDX58) relative expression in ADAR1^WT and ADAR1^KD LIM1215 colorectal cancer cell lines treated with 300 nM 5-AZA-CdR for 5 days.
Based on these findings, we hypothesized that ADAR1 depletion would synergize with the viral mimicry response induced by DNMTi treatment. To assess how ADAR1 depletion affects 5-AZA-CdR treated samples, we performed RNA-seq analyses in patient-derived CRC cells. […] As a molecular read-out of dsRNA pattern recognition activation, we measured MAVS aggregation in the mitochondrial fraction of cell lysates^34. […] Taken together, our findings establish that ADAR1 acts as a negative feedback loop, restricting the viral mimicry response induced by DNMTi treatment in cancer cells.

[3] = system: patient-derived CRC cells; test: survival of patient-derived CRC cells, luminescence dose-response; assay type: cell-based, human; details: in vitro, ADAR1-knockdown vs wild-type patient-derived CRC cells
Method: A, Survival of wild-type ADAR1 (black) and ADAR1-knockdown (gray) patient-derived CRC cells after treatment with 5-AZA-CdR. Luminescence signal was normalized, and dose-response curves and EC50 values were calculated using a nonlinear regression curve fit.
Finally, we sought to investigate whether ADAR1 inhibition would synergize with epigenetic therapy to increase the anti-tumour response. […] To examine the potential synergy in vivo, we injected ADAR1^KDA/B or wildtype patient-derived xenograft CRC cells subcutaneously into immune-deficient NOD.Cg-Prkdc (NSG) mice, and treated the mice with 5-AZA-CdR or vehicle (PBS) (FIG. 12B and FIG. 13A). […] Thus, ADAR1 inhibition in human cancer cells profoundly sensitizes tumours to 5-AZA-CdR treatment in vivo.

[4] = system: patient-derived CRC cells; test: in vivo LDA measuring tumour-initiation potential; set-up: species or system NSG mice
Method: F Schematic representation of in vivo LDA measuring tumour-initiation potential. NSG mice were injected with 10,000 cells (n=8 tumours), 1,000 cells (n=8 tumours), 100 cells (n=8 tumours) and 10 cells (n=16 tumours).
G, Tumour-initiating cell frequency from the in vivo LDA of patient-derived CRC cells for each condition. ADAR1WT 5-AZA-CdR vs ADAR1KDA 5-AZA-CdR P=0.00862; ADAR1WT 5-AZA-CdR vs ADAR1KDB 5-AZA-CdR P=0.009; chi-square test.
One of the major challenges facing conventional chemotherapy is the persistence of cancer initiating cells (CICs), often resulting in relapse^38-40. We and others have previously shown that 5-AZA-CdR treatment can target colorectal cancer CICs by inducing the viral mimicry response^1,41. We therefore tested whether ADAR1^KD by itself or in combination with 5-AZA-CdR can decrease tumour initiation. To this end, we first employed an in vitro sphere initiation assay followed by limiting dilution analysis (LDA) using patient-derived CRC cells. […] In addition, we performed in vivo tumour initiation assays by injecting serially diluted patient-derived CRC cells into NSG immunodeficient mice and inspected tumour engraftment for up to 6 months after injection (FIG. 12F).

Nc1ncn([C@H]2C[C@H](O)[C@@H](CO)O2)c(=O)n1 [5-AZA-CdR]
sense and/or antisense transcription of repeat elements (LINEs, ERVs, SINEs) [1]: increased sense and/or antisense transcription of long interspersed nuclear elements (LINEs) and ERVs, but not short interspersed nuclear elements (SINEs)
ADAR1 expression (ADAR1; patient-derived CRCs, 300 nM for 5 days): up-regulated ADAR1 expression
duration of ADAR1 up-regulation after drug withdrawal (ADAR1; washed out at day 5, drug-free medium, 24 days course): sustained for about fourteen days after drug withdrawal
expression of IFN stimulated genes (ISGs) [2]: enhanced upon ADAR1 depletion
reduction of EC50 by ADAR1 knock-down [3]: four to six-fold reduction
Number of Engrafted tumours/number of injected tumours ([4]; ADAR1^KDA, 10 cells injected): 0/16
Number of Engrafted tumours/number of injected tumours ([4]; ADAR1^KDA, 100 cells injected): 0/8
Number of Engrafted tumours/number of injected tumours ([4]; ADAR1^KDA, 1,000 cells injected): 3/8
Number of Engrafted tumours/number of injected tumours ([4]; ADAR1^KDA, 10,000 cells injected): 5/8
tumour engraftment potential ([4]; ADAR1^KDA/B cells relative to wild-type, up to 6 months): substantially reduced tumour engraftment potential
Number of Engrafted tumours/number of injected tumours ([4]; ADAR1^KDB, 10 cells injected): 0/16
Number of Engrafted tumours/number of injected tumours ([4]; ADAR1^KDB, 100 cells injected): 0/8
Number of Engrafted tumours/number of injected tumours ([4]; ADAR1^KDB, 1,000 cells injected): 1/8
Number of Engrafted tumours/number of injected tumours ([4]; ADAR1^KDB, 10,000 cells injected): 6/8
Number of Engrafted tumours/number of injected tumours ([4]; ADAR1^WT, 10 cells injected): 0/16
Number of Engrafted tumours/number of injected tumours ([4]; ADAR1^WT, 100 cells injected): 3/8
Number of Engrafted tumours/number of injected tumours ([4]; ADAR1^WT, 1,000 cells injected): 5/8
Number of Engrafted tumours/number of injected tumours ([4]; ADAR1^WT, 10,000 cells injected): 7/8
